Key:
[1] = system: TMV (tobacco mosaic virus) replication in TMV-infected tobacco leaf discs; experiment: Antiviral activity in TMV-infected leaf discs (TMV content by ELISA); assay type: cell-based, tobacco mosaic virus; leaf discs of N. tabacum var. samsun; conditions: for ng TMV/ml: control 550 (Table 4)
Experimental: Assays for antiviral activity in TMV-infected leaf discs were done using leaves of N. tabacum var. samsun in which TMV is systemically spread. Leaves were mechanically inoculated with purified TMV (5 μg/ml in 0.01M sodium phosphate buffer, pH 7.6, containing 0.1 g/ml of carborundum as an abrasive). Immediately after infection, leaf discs (6.5 mm diameter) were punched out of the inoculated leaves and placed in a beaker containing 0.01M sodium phosphate, pH 7.6.
selected at random from this common pool and placed onto separate petri dishes, each containing 18 ml of 10 mM 4-(2-hydroxyethyl)-1-piperazine ethanesulfonic acid (HEPES)-KOH, pH 7.05, 188 mg/L Na2 HPO4 --7H2 O. […] At the end of the 1 hr incubation, the buffer containing the antiviral dinucleotide was replaced by a buffer lacking the antiviral dinucleotide for another hr. The discs were then washed with 0.01M sodium phosphate, pH 7.6, and were allowed to incubate for an additional 72 hr in phosphate buffer (Devash, Y., Biggs, S. and Sela, I. [1982] Science 216: 1415-1416; Devash, Y. et al. [1984] J. Biol. Chem. 259: 3482-3486). The discs were homogenized in 0.01M sodiuM phosphate buffer, pH 7.6, and the TMV content was determined by enzyme-linked immunosorbent assay (ELISA) as described below.
The TMV content of the homogenates was determined by ELISA essentially by the method of Clark and Adams ([1977] J. Gen. Virol. 34: 475-483) but with the following order of layers on the microtiter plates.
(a) the γ-globulin fraction of a serum obtained from a chicken immunized against TMV was absorbed directly to the plate.
(b) The next layer was the tested sample (at various dilutions) or a series of purified TMV suspensions at known concentrations (calibration curve).
(c) The third layer was the γ-globulin from the serum of a TMV-immunized rabbit.
(d) The final layer was goat antibody to rabbit immunoglobulin G conjugated with alkaline phosphatase (Sigma). The release of phosphate from p-nitrophenyl phosphate due to the antibody-conjugated alkaline phosphatase was monitored spectrophotometrically with a Microplate reader (Dynatech Diagnostics, Inc. South Windham, ME) and was proportional to TMV concentration in a log linear manner for about two logs (<2 ng to>200 ng). (Devash, Y., Biggs, S. and Sela, I. [1982] Science 216: 1415-1416)
The γ-globulin fraction of serum obtained from chickens and rabbits immunized against TMV were generous gifts from Professor Ilan Sela, The Hebrew University of Jerusalem, Agriculture Faculty, Rehobot, Israel.

[2] = system: TMV (tobacco mosaic virus) replication in intact N. glutinosa plants; experiment: Antiviral activity in N. glutinosa intact plants, infectivity test (local lesions); assay type: in vivo, tobacco mosaic virus; Nicotiana glutinosa; conditions: for induced resistance to TMV infection in the non-treated half-leaf: 1 μM (10^-6 M)
Experimental: Nicotiana glutinosa and N. tabacum var. samsum plants were grown in potting medium in greenhouse conditions (25±3° C., and constant illumination). The plants were fertilized with a commercial fertilizer every two weeks. Plants were used at 5-8 leaf stage (Devash, Y., Biggs, S. and Sela, I. [1982] Science 216: 1415-1416; Devash, Y. et al. [1984] Jour. Biol. Chem. 259: 3482-3486).
The ability of the antiviral dinucleotides to inhibit TMV replication in intact N. glutinosa plants (containing N-gene for TMV localization) was determined by infectivity tests. Solutions containing 5 μg/ml TMV, 0.1 μg/ml carborundum, and antiviral dinucleotide were applied to 5 half-leaves of N. glutinosa. The opposite half-leaves served as controls and were inoculated with infecting solution containing TMV and carborundum but no dinucleotides. The infection was allowed to proceed 48 hr. Inhibition of TMV replication was calculated as the percent of local lesions produced in antiviral compound treated half-leaves, as compared to control half-leaves.

[3] = 10 nM (10^-8 M), non-treated half-leaf
[4] = 10 nM (10^-8 M), treated half-leaf
[5] = 100 nM (10^-7 M), non-treated half-leaf
[6] = 100 nM (10^-7 M), treated half-leaf
[7] = 1000 nM (10^-6 M), non-treated half-leaf
[8] = 1000 nM (10^-6 M), treated half-leaf

Compound: Nc1ncnc2c1ncn2[C@@H]1O[C@H](COP(=O)(O)OP(=O)(O)O[C@H]2[C@@H](O)[C@H](n3cnc4c(N)ncnc43)O[C@@H]2CO)[C@@H](O)[C@H]1O [A3'pp5'A, adenosine 3',5'-diphospho-adenosine]
- ng TMV/ml ([1]; 2 × 10^-9 M): 550 ng TMV/ml
- ng TMV/ml ([1]; 20 × 10^-9 M): 200 ng TMV/ml
- ng TMV/ml ([1]; 200 × 10^-9 M): 150 ng TMV/ml
- effectiveness in inhibiting TMV replication compared with 2',5'-adenylate trimer core ([1]; TMV-infected discs, in words): confer similar antiviral state
- inhibition at 0.002 µM ([1]; Tobacco mosaic virus, 2 × 10^-9 M (Table 4), read-out: % Inhibition as Related to Control): 0%
- inhibition at 0.02 µM ([1]; Tobacco mosaic virus, 20 × 10^-9 M (Table 4), read-out: % Inhibition as Related to Control): 64%
- inhibition at 0.2 µM ([1]; Tobacco mosaic virus, 200 × 10^-9 M (Table 4), read-out: % Inhibition as Related to Control): 73%
- induced resistance to TMV infection in the non-treated half-leaf ([2]; in words): resulted in an induced resistance to TMV infection even in the non-treated half-leaf
- percent protection as compared to control TMV infected leaves ([2]; 10^-6 M, non-treated half leaf (Table 5)): 93%
- percent protection as compared to control TMV infected leaves ([2]; 10^-6 M, treated half leaf (Table 5)): 100%
- inhibition of TMV replication (inhibition of formation of local lesions) ([2]; N. glutinosa intact plants, in words): inhibited the TMV replication

Compound: Nc1ccn([C@@H]2O[C@H](COP(=O)(O)OP(=O)(O)OC[C@H]3O[C@@H](n4cnc5c(N)ncnc54)[C@H](O)[C@@H]3O)[C@@H](O)[C@H]2O)c(=O)n1 [A5'pp5'C, adenosine 5',5'"-p^1,p^2 -diphospho-cytidine]
- percent protection as compared to control TMV infected leaves [2, 3]: 36.1%
- percent protection as compared to control TMV infected leaves [2, 4]: 55.0%
- percent protection as compared to control TMV infected leaves [2, 5]: 35.5%
- percent protection as compared to control TMV infected leaves [2, 6]: 51.9%
- induced resistance to TMV infection in the non-treated half-leaf ([2]; in words): resulted in an induced resistance to TMV infection even in the non-treated half-leaf
- percent protection as compared to control TMV infected leaves [2, 7]: 32.9%
- percent protection as compared to control TMV infected leaves [2, 8]: 63.5%

Compound: Nc1ncnc2c1ncn2[C@@H]1O[C@H](COP(=O)(O)OP(=O)(O)OC[C@H]2O[C@@H](n3ccc(=O)[nH]c3=O)[C@H](O)[C@@H]2O)[C@@H](O)[C@H]1O [A5'pp5'U, adenosine 5',5'"-p^1,p^2 -diphospho-uridine]
- percent protection as compared to control TMV infected leaves [2, 3]: 5.2%
- percent protection as compared to control TMV infected leaves [2, 4]: 38.1%
- percent protection as compared to control TMV infected leaves [2, 5]: 0%
- percent protection as compared to control TMV infected leaves [2, 6]: 0%
- percent protection as compared to control TMV infected leaves [2, 7]: 21.0%
- percent protection as compared to control TMV infected leaves [2, 8]: 80.2%

Compound: Nc1ncnc2c1ncn2[C@@H]1O[C@H](COP(=O)(O)OP(=O)(O)O[C@@H]2[C@H](O)[C@@H](CO)O[C@H]2n2cnc3c(N)ncnc32)[C@@H](O)[C@H]1O [Adenosine 2',5'-p^1,p^2-diadenosine, adenosine 2',5'-diphospho-adenosine]
- inhibition of TMV replication ([1]; TMV-infected discs, in words): effective inhibitor of TMV replication
- inhibition at 1 µM ([1]; Tobacco mosaic virus, 10^-6 M (Table 6), read-out: % Inhibition as related to control): 42%
- inhibition at 0.1 µM ([1]; Tobacco mosaic virus, 10^-7 M (Table 6), read-out: % Inhibition as related to control): 37%
- inhibition at 0.01 µM ([1]; Tobacco mosaic virus, 10^-8 M (Table 6), read-out: % Inhibition as related to control): 26.4%
- inhibition at 0.001 µM ([1]; Tobacco mosaic virus, 10^-9 M (Table 6), read-out: % Inhibition as related to control): 21%
- inhibition at 0.0001 µM ([1]; Tobacco mosaic virus, 10^-10 M (Table 6), read-out: % Inhibition as related to control): 0%

Compound: Nc1ncnc2c1ncn2[C@@H]1O[C@H](COP(=O)(O)OP(=O)(O)OC[C@H]2O[C@@H](n3cnc4c(N)ncnc43)[C@@H]3OP(=O)(O)O[C@@H]32)[C@H]2OP(=O)(O)O[C@H]21 [P<A5'PP5'A>P, 2',3'-cyclic phospho-diadenosine 5',5'"-p^1,p^2-diphosphate]
- antiviral activity/potency on structural modification ([1]; in words, compared to dinucleotides with 2 and 3 internal phosphates): did not decrease their antiviral potency

Source: US4855304A, “Dinucleoside pyrophosphates and pyrophosphate homologs as plant antivirals” (Repligen Corporation, priority 1985, dated 1989)
